Series [1] has as its target S. pneumoniae recombinant NanA 9400_LC (Streptococcus pneumoniae, UniProt P62575). Briefly: biochemical. Further details: species or system Streptococcus pneumoniae CJ9400.
The target in series [2] is S. pneumoniae recombinant NanA 9400_CC (Streptococcus pneumoniae, UniProt P62575). Put plainly: biochemical. The series is classed as biochemical, Streptococcus pneumoniae CJ9400.
Series [3] addresses S. pneumoniae recombinant NanA 20566_LC (Streptococcus pneumoniae, UniProt P62575). Briefly: biochemical. Also noted: species or system Streptococcus pneumoniae DSM20566.
In series [4] the target is S. pneumoniae recombinant NanA 20566_CC (Streptococcus pneumoniae, UniProt P62575). Briefly: biochemical. Further details: species or system Streptococcus pneumoniae DSM20566.
Sequence of S. pneumoniae recombinant NanA 20566_CC (P62575 311-833): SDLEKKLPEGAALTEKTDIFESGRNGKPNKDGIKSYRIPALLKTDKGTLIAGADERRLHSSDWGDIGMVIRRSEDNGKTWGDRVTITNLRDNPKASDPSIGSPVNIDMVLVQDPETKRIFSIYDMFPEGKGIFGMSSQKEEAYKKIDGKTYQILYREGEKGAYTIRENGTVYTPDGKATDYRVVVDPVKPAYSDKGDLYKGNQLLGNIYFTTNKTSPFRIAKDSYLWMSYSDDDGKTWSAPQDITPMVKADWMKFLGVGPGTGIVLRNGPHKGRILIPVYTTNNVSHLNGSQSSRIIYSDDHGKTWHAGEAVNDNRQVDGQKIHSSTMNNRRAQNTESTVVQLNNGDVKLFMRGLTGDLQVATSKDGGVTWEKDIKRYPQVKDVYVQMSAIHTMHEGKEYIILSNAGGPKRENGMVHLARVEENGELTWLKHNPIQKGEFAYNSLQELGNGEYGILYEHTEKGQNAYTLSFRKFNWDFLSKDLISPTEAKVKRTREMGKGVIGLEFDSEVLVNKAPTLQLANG
In series [5] the target is Influenza virus A/WSN/33 NA-wt (whole virus) (Influenza A virus, UniProt P03470). The series is classed as biochemical, influenza A virus A/WSN/1933 (H1N1). Conditions: for Km: Km for MUNANA, kinetics with 1.
Sequence of Influenza virus A/WSN/33 NA-wt (whole virus) (P03470 whole entry, looked up): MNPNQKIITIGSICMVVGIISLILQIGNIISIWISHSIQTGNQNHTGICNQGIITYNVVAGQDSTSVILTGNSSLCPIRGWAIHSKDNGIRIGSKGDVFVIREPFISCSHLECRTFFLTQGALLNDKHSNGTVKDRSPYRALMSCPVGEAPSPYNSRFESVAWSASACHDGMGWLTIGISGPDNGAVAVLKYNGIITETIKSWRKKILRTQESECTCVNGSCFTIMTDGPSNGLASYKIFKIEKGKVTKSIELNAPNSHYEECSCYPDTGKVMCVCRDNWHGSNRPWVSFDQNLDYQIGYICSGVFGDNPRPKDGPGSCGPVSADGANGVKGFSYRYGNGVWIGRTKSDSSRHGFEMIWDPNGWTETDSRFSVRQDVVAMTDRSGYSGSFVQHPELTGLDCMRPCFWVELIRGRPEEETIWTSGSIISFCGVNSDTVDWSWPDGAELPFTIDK
Series [6] addresses S. pneumoniae recombinant NanA 8919_LC (Streptococcus pneumoniae, UniProt P62575). Briefly: biochemical. The series is classed as biochemical, Streptococcus pneumoniae CF8919.
In series [7] the test system is S. pneumoniae DSM20566. Put plainly: Bactericidal or bacteriostatic activity (subculture on blood agar). Conditions: for cfu per agar plate: 18 h, then subculture. The series is classed as cell-based, Streptococcus pneumoniae DSM20566.
In series [8] the test system is influenza A virus 8178/09. Briefly: microbe, parasite or virus in culture. The series is classed as cell-based, influenza A virus A/Jena/8178/2009 (H1N1). Conditions: Influenza A virus, MDCK, 48 h, read-out: 50% inhibitory concentration, influenza A virus 8178/09.
Series [9] concerns human erythrocytes. The series is classed as cell-based. The procedure, abridged: (§1)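 Neuraminidase activity from whole virus, recombinant NanA or total precipitated S. pneumoniae DSM20566 protein, measured by MUNANA (100 μM) fluorescence and/or hemagglutination-based NA inhibition with human erythrocytes. Compound fluorescence interference excluded. Erythrocyte lysis checked at 2 h, 4°C (viral) and 4 h, 37°C plus 12 h, 4°C (bacterial).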

The next series concerns WSN/33. The series is classed as cell-based, influenza A virus A/WSN/1933 (H1N1).
Series [10] deals with S. pneumoniae DSM20566 biofilm. Briefly: Biofilm inhibition assay. The series is classed as cell-based, Streptococcus pneumoniae DSM20566. Conditions: Streptococcus pneumoniae, DSM20566; 50 μM; read-out: Inhibition of biofilm formation at the maximum tested concentration.
For series [11], the system named is human erythrocytes. The series is classed as cell-based. An outline of the steps: as §1
This is another data set of the same source.

For series [12], the system named is Influenza virus A/Jena/8178/09. The series is classed as cell-based, influenza A virus A/Jena/8178/2009 (H1N1).
The next series concerns IAV 5258/09 NA. Put plainly: Hemagglutination (HA)-based NA inhibition assay, IAV 5258/09. The series is classed as cell-based, influenza A virus A/Jena/5258/2009 (H1N1). Conditions: human erythrocytes.
Series [13] has as its target IAV HK/68 NA (whole virus) (Influenza A virus, UniProt Q91MA2). Briefly: biochemical. Further details: species or system influenza A virus A/Hong Kong/68 (H3N2). Conditions: NA inhibition using FL assay IC50, IAV HK/68.
The subject of another series is influenza A virus WSN/33. Briefly: microbe, parasite or virus in culture. The series is classed as cell-based, influenza A virus A/WSN/1933 (H1N1). Conditions: Influenza A virus, WSN, MDCK, 48 h, read-out: 50% inhibitory concentration, influenza A virus WSN/33.
In series [14] the test system is S. pneumoniae DSM20566. Put plainly: Microtiter broth microdilution assay, planktonic growth. The series is classed as cell-based, Streptococcus pneumoniae DSM20566. Conditions: Streptococcus pneumoniae, DSM20566; 18 h, maximum 50 μM; read-out: 50% inhibitory concentration, S. pneumoniae DSM20566 planktonic growth.
The test system of the next series is influenza A virus HK/68. Put plainly: microbe, parasite or virus in culture. The series is classed as cell-based, influenza A virus A/Hong Kong/68 (H3N2). Conditions: Influenza A virus, MDCK, 48 h, read-out: 50% inhibitory concentration, influenza A virus HK/68.
Series [15] concerns the target T1, S. pneumoniae DSM20566 NA (NanA) (Streptococcus pneumoniae, UniProt P62575).
T1 construct: host or cells: either rNanA from E. coli BL21(DE3) or total precipitated protein of S. pneumoniae DSM20566
Briefly: FL NA inhibition assay, S. pneumoniae DSM20566. The series is classed as biochemical.

Series [16] concerns the target T2, S. pneumoniae DSM20566 NA (Streptococcus pneumoniae, UniProt P62575).
T2 construct: host or cells: either rNanA from E. coli BL21(DE3) or total precipitated protein of S. pneumoniae DSM20566
Put plainly: HA-based NA inhibition assay, S. pneumoniae DSM20566. The series is classed as cell-based.

Another series can be described thus: in vitro. Conditions: dog.
The test system of series [17] is 8178/09-, WSN/33-, or HK/68-induced cytopathic effect. Briefly: CPE inhibition assay (viruses not separated). The series is classed as cell-based. Conditions: Influenza A virus, MDCK, read-out: IC50 of inhibition of the 8178/09-, WSN/33-, or HK/68-induced cytopathic effect.

Experimental findings from article PMC5309245, “Discovery and Characterization of Diazenylaryl Sulfonic Acids as Inhibitors of Viral and Bacterial Neuraminidases” (Frontiers in Microbiology, 2017) are described below.

Values joined by “and” are separate entries in the source; they are usually repeats but may differ in a detail not shown here. Identical values can stand only once. Counter-ions that a name gives are not always drawn. Like-named read-outs stand apart in the source and are kept apart here.

Sequence of S. pneumoniae recombinant NanA 20566_LC (P62575 116-833): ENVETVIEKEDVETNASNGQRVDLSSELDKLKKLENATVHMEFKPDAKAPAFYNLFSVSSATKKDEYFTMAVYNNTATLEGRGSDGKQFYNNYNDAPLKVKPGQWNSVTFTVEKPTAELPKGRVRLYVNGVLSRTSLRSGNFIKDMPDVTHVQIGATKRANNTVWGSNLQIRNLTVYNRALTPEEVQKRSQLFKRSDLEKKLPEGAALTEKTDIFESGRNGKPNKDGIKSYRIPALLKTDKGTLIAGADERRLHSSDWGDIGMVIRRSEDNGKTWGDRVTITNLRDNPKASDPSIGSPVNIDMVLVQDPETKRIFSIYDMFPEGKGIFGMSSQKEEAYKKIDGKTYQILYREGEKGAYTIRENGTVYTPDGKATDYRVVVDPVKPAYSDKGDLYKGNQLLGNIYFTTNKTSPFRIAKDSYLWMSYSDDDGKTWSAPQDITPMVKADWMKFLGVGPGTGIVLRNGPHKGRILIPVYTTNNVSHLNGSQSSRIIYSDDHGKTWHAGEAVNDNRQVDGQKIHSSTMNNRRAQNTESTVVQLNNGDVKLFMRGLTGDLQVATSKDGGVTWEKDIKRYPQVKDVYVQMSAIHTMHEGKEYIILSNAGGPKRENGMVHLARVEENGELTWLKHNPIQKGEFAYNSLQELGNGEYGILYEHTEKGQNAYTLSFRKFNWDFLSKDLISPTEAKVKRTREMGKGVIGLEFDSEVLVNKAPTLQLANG
Sequence of S. pneumoniae recombinant NanA 9400_LC (P62575 116-833): as above
Sequence of S. pneumoniae recombinant NanA 8919_LC (P62575 116-833): as above
Sequence of S. pneumoniae recombinant NanA 9400_CC (P62575 311-833): as the sequence (P62575 311-833) above
T2 sequence (P62575 54-1035): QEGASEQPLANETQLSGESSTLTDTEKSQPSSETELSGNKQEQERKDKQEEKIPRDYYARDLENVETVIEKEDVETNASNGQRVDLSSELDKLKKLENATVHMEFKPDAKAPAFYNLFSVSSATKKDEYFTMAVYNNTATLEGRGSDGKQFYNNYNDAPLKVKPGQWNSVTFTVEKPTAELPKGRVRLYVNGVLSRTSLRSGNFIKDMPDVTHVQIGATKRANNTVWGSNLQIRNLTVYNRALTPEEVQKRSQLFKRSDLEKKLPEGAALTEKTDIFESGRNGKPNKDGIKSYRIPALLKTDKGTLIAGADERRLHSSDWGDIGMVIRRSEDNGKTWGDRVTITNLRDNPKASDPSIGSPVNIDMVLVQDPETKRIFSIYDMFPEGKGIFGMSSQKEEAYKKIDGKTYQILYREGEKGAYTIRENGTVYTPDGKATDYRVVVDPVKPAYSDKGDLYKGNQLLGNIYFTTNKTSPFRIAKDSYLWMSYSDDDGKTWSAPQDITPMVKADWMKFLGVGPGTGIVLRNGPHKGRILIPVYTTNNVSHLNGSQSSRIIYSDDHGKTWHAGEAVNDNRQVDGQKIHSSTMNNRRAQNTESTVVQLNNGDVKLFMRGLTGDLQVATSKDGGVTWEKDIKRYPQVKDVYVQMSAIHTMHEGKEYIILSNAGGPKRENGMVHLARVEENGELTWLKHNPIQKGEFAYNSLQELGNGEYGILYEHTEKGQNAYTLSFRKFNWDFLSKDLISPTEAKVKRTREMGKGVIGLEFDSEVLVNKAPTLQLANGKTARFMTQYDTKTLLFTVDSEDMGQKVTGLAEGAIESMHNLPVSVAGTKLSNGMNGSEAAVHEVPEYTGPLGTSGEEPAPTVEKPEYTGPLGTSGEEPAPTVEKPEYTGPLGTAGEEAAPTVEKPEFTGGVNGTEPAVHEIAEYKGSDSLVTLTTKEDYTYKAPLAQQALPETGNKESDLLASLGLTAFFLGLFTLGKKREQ

Turning to `CC(=O)N[C@H]1[C@H]([C@H](O)[C@H](O)CO)O[C@@](Oc2ccc3c(C)cc(=O)oc3c2)(C(=O)O)C[C@@H]1O` [MUNANA, 2′-(4-methylumbelliferyl)-α-D-N-acetylneuraminic acid sodium salt hydrate, reference compound], the Km in series [1] (Km for MUNANA, kinetics with 1) was 46.2 ± 1.71 µM; in [2] (Km for MUNANA, kinetics with 1) it was 46.4 ± 3.93 µM; in [3] (Km for MUNANA, kinetics with 1), 17.9 ± 2.12 µM; in series [4] (Km for MUNANA, kinetics with 1) it was 20.2 ± 4.74 µM; in series [5] (20 min preincubation), 44.2 ± 4.63 µM; in series [5] (without preincubation (n = 2)), 40 ± 3.86 µM. In addition, the Km in series [6] (Km for MUNANA, kinetics with 1) stood at 18 ± 2.39 µM.
Turning to `Cc1cc(N=Nc2ccc(N=Nc3c(O)c(S(=O)(=O)O)cc4cc(S(=O)(=O)O)ccc34)cc2C)ccc1N=Nc1ccc2cc(S(=O)(=O)O)cc(S(=O)(=O)O)c2c1` [Compound 1, 7-[2-[4-[2-[4-[2-(2-hydroxy-3,6-disulfo-1-naphthalenyl)diazenyl]-2-methylphenyl]diazenyl]-2-methylphenyl]diazenyl]-1,3-naphthalenedisulfonic acid], the “Activity (bactericidal or bacteriostatic)” value with S. pneumoniae DSM20566 [7] (50 µM) is listed as “bacteriostatic”. Moreover, in the series with S. pneumoniae DSM20566 [7] (50 µM), the “cfu per agar plate” value is over 150. Besides, the IC50 in [8] came to 20.4 ± 2.51 µM; in [13] it was 1.42 ± 0.44 µM; in the series with influenza A virus WSN/33 it was 7.17 ± 0.96 µM; with S. pneumoniae DSM20566 [14] it was 28.8 ± 13.1 µM; with influenza A virus HK/68 it was 18.5 ± 9.59 µM; in series [15] (MUNANA substrate, read-out: NA inhibition using FL assay IC50, S. p. DSM20566), 0.32 ± 0.05 µM. Besides, the IC50 in series [17] is under 15 µM. In addition, in the series with human erythrocytes [9] (human erythrocytes, 2 h at 4°C), the “sample concentrations provoking erythrocyte lysis, viral HA-assay” value is listed as “no”. Further, the “Decrease of plaque formation, compound during the whole replication cycle” value in the series with WSN/33 was “up to 100%”. Moreover, the “Plaque numbers after pretreatment of MDCK cells” value in the series on WSN/33 is reported as “not affected”. Besides, the “Reduction of plaque number after pretreatment of the cell-free virus” value with WSN/33 is listed as ~ 95%. In addition, the “Reduction of plaque number, compound added during virus adsorption” value with WSN/33 worked out at 50%. Besides, the inhibition at 50 µM in series [10] amounted to 49%. Further, the Binding mechanism entry in series [1], in [2], in [3], in [4], in [5] and in [6] was “Mixed” each time. Moreover, the Ki came out at 0.19 ± 0.02 µM in [1] (Ki); 0.172 µM in series [1] (Ki (fit printed in Lineweaver-Burk plot, Supplementary Figure 2D)); 0.16 ± 0.01 µM in series [2]; 0.12 ± 0.01 µM in series [3] (Ki); 0.103 µM in [3] (Ki (fit in Lineweaver-Burk plot, Supplementary Figure 2B)); 0.16 ± 0.03 µM in series [4] (Ki). In addition, the Ki amounted to 0.143 µM in [4] (Ki (fit in Lineweaver-Burk plot, Supplementary Figure 2C)) and 0.11 ± 0.02 µM in [6]. In addition, the “sample concentrations provoking erythrocyte lysis, bacterial HA-assay” value in the series on human erythrocytes [11] (human erythrocytes, 4 h at 37°C and 12 h at 4°C) is listed as “no”. The “alpha (fit printed in Lineweaver-Burk plot, Supplementary Figure 2E)” value in series [2] is recorded as 3,7. In addition, the “alpha (fit in Lineweaver-Burk plot, Supplementary Figure 2B)” value in series [3] is 12,9. For the same compound, in series [4], the “alpha (fit in Lineweaver-Burk plot, Supplementary Figure 2C)” value was 5,5. The “Mean reduction in plaque numbers ± SD” value in series [12] was 96.10 ± 3.45% and 96.46 ± 1.08% and 97.76 ± 0.65% and 94.12 ± 3.06%. In addition, the “Mean ± SD of both experiments, reduction in plaque numbers” value in series [12] is 95.29 ± 1.65% and 96.93 ± 1.17%. The “NA inhibition using HA assay MIC, IAV 5258/09” value in the series with IAV 5258/09 NA is 10.00 ± 0.00 µM. In addition, the “binding kinetics (effect of pre-incubation on Ki)” value in series [5] is “fast-binding inhibitor”. The “NA inhibition using HA assay MIC, S. p. DSM20566” value in series [16] (human erythrocytes) came to 7.26 ± 3.75 µM. In the series “in vitro”, this compound had a CC50 of over 100 µM. Further, the “alpha (fit printed in Lineweaver-Burk plot, Supplementary Figure 2A)” value in [6] is recorded as 7,8.
For `O=S(=O)(O)c1ccc2c(/N=N/c3ccc(Sc4ccc(/N=N/c5c(O)ccc6cc(S(=O)(=O)O)ccc56)cc4)cc3)c(O)ccc2c1` [Compound 2], the “Activity (bactericidal or bacteriostatic)” value with S. pneumoniae DSM20566 [7] (25 µM) and in the series with S. pneumoniae DSM20566 [7] (50 µM) was “bacteriostatic” each time. Further, the “cfu per agar plate” value in the series on S. pneumoniae DSM20566 [7] (25 µM) and in the series with S. pneumoniae DSM20566 [7] (50 µM) was over 150 each time. Also, the IC50 in series [8] turned out to be 9.09 ± 1.94 µM; in series [13], 83 ± 5.67 µM; in the series on influenza A virus WSN/33, 11.8 ± 3.19 µM; with S. pneumoniae DSM20566 [14], 4.59 ± 2.45 µM; with influenza A virus HK/68, 6.19 ± 4.62 µM; in series [15] (NA inhibition using FL assay IC50, S. p. DSM20566), 1.85 ± 0.1 µM. Further, the IC50 in [17] was under 15 µM. Further, the “sample concentrations provoking erythrocyte lysis, viral HA-assay” value with human erythrocytes [9] is listed as “no”. Besides, the inhibition at 50 µM in [10] came to 47%. In addition, the “sample concentrations provoking erythrocyte lysis, bacterial HA-assay” value in the series with human erythrocytes [11] was “no”. For the same compound, in series [16], the “NA inhibition using HA assay MIC, S. p. DSM20566” value was found to be 10.00 ± 0.00 µM. Besides, in “in vitro”, the CC50 was over 100 µM.
